# Earlier results in patent US20050042240A1, “High viscosity antibacterials” (priority 2002, published 2005).
# Conditions: chronic catheter lock context
structure (smiles),measurement,value
CC(C)O [isopropyl alcohol],daily dose above which toxic symptoms can arise,> 500 mg
